Data reported in patent US12564638B2 (SHANGHAITECH UNIVERSITY, priority 2019, dated 2026).
pIC50: −log10 of the molar value. Read-outs that look alike come from different tables or passages of the source.

Experiments:
Type in all cases: cell-based
[1] = test system: HCC827 cells (EGFR Exon19 del, non-small cell lung cancer cells); test: Cell viability assay (WST/CCK8), HCC827 cells; details: Homo sapiens, HCC827, 72 h, 72 hours, read-out: IC50 (half inhibitory concentration)
How it was run: (§1)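 Plated 3 000 cells/well in complete RPMI1640 the day before dosing; controls were DMSO (negative) and EGFR TKIs (positive).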

[2] = test system: H1975 (EGFR T790M+L858R mutation, non-small cell lung cancer cell line); test: Cell viability assay (WST/CCK8), H1975 cells; details: Homo sapiens, NCI-H1975, read-out: IC50 (half inhibitory concentration)
From the text: (§2) The cell lines with abnormal EGFR expression used are as follows: • HCC827 cells (EGFR Exon19 del, non-small cell lung cancer cells); • PC9 cells (EGFR Exon 19 del, non-small cell lung cancer cells); • PC9BracA1 (EGFR Exon 19 del+T790M, non-small cell lung cancer cells) • H1975 (EGFR Exon T790M+L858R mutation, non-small cell lung cancer cell line) • BT474 cells (HER2 positive breast cancer cells)
(§3) All of the half inhibitory concentrations (IC50) of these compounds of the present invention were determined with WST reagent from Fuyuan Biotec Company. The specific experiment procedures are as follows: Cancer cells were planted in 96-well-plate at the density of 3 000 cells per well with 100 μL RPMI1640 completed culture medium. In the next day, compounds with indicated concentrations were added to the cells, DMSO was used as the negative control and the EGFR TKIs were used to treat cells as the positive groups. After 72 hours drug treatment, cell viability was measured by using the WST reagent following the instructions.

[3] = test system: PC9BracA1 (EGFR Exon 19 del+T790M, non-small cell lung cancer cells); test: Cell viability assay (WST/CCK8), PC9Brac1 cells; details: Table 8, osimertinib-based compounds; Pc9Brc1; 72 hours; WST; read-out: IC50 (half inhibitory concentration)
From the text: as §2, §3

[4] = test system: PC9 cells (EGFR Exon 19 del, non-small cell lung cancer cells); test: Cell viability assay (WST/CCK8), PC9 cells; details: Homo sapiens, PC-9, PC9 (Exon19 Del), 72 hours, read-out: IC50 (half inhibitory concentration)
How it was run: as §1

[5] = test system: BT474 cells (HER2 positive breast cancer cells); test: Cell viability assay (CCK8), BT474 cells; details: Homo sapiens, BT-474, Table 10, BT474, 72 hours, read-out: IC50 (half inhibitory concentration)
From the text: as §2
as §3, with “instructions. The growth inhibition curve of the compounds on cells were plotted by Prism GraphPad, and the compounds IC50 calculated from it.” for “instructions.”
The cell viability assays were taken to determine the anti-tumor activity of these indicated compounds in BT474 cells, which can overexpress HER2 protein. The cells were treated with the gradient concentration of these compounds (the maximum concentration: 10 μM; 3-fold dilution ratio, 10 concentration gradients) for 72 hours and then incubated with the CCK8 reagent to determine the cell viability.

[6] = Table 8, osimertinib-based compounds, HCC827, WST
[7] = Table 8, osimertinib-based compounds, H1975, 72 hours, WST
[8] = HCC827 (Exon19 Del), WST (CCK8)
[9] = H1975 (L858R + T790M), 72 hours, WST

C=CC(=O)Nc1cc(Nc2nccc(-c3cn(C)c4ccccc34)n2)c(OC)cc1N(C)CCN(C)C(=O)CCCCCCSc1cccc2c1CN(C1CCC(=O)NC1=O)C2=O (stereo not shown) [SIAIS337057, N-(2-((2-acrylamido-5-methoxy-4-((4-(1-methyl-1H-indol-3-yl)pyrimidin-2-yl)amino)phenyl)(methyl)amino)ethyl)-7-((2-(2,6-dioxopiperidin-3-yl)-1-oxoisoindolin-4-yl)thio)-N-methylheptanamide]
pIC50 [1, 6]: 7.32
pIC50 [2, 7]: 7.68

C=CC(=O)Nc1cc(Nc2nccc(-c3cn(C)c4ccccc34)n2)c(OC)cc1N(C)CCN(C)C(=O)CCCCCSc1cccc2c1CN(C1CCC(=O)NC1=O)C2=O (stereo not shown) [SIAIS337056, N-(2-((2-acrylamido-5-methoxy-4-((4-(1-methyl-1H-indol-3-yl)pyrimidin-2-yl)amino)phenyl)(methyl)amino)ethyl)-6-((2-(2,6-dioxopiperidin-3-yl)-1-oxoisoindolin-4-yl)thio)-N-methylhexanamide]
pIC50 [1, 6]: 6.94
pIC50 [3]: 6.01

C=CC(=O)Nc1cc2c(Nc3ccc(F)c(Cl)c3)ncnc2cc1OCCCN1CCC(N2CCN(C(=O)CCCCSc3cccc4c3CN(C3CCC(=O)NC3=O)C4=O)CC2)CC1 (stereo not shown) [SIAIS262175, N-(4-((3-chloro-4-fluorophenyl)amino)-7-(3-(4-(4-(5-((2-(2,6-dioxopiperidin-3-yl)-1-oxoisoindolin-4-yl)thio)pentanoyl)piperazin-1-yl)piperidin-1-yl)propoxy)quinazolin-6-yl)acrylamide]
pIC50 ([1]; Table 6, canertinib-based compounds, HCC827 (Exon19 Del), WST): 8.17
pIC50 ([4]; Table 6, canertinib-based compounds, WST): 7.77
pIC50 ([2]; Table 7, canertinib-based compounds, H1975 (L858R + T790M)): 6.37
pIC50 [5]: 7.65

COc1cc2ncnc(Nc3ccc(F)c(Cl)c3)c2cc1NC(=O)/C=C/CN1CCC(N2CCN(C(=O)CSc3cccc4c3CN(C3CCC(=O)NC3=O)C4=O)CC2)CC1 (stereo not shown) [SIAIS262034, (E)-N-(4-((3-chloro-4-fluorophenyl)amino)-7-methoxyquinazolin-6-yl)-4-(4-(4-(2-((2-(2,6-dioxopiperidin-3-yl)-1-oxoisoindolin-4-yl)thio)acetyl)piperazin-1-yl)piperidin-1-yl)but-2-enamide]
pIC50 [1, 8]: 8.44
pIC50 ([4]; WST (CCK8)): 7.95
pIC50 [2, 9]: 6.08

COc1cc2ncnc(Nc3ccc(F)c(Cl)c3)c2cc1NC(=O)/C=C/CN1CCC(N2CCN(C(=O)CCCCCCSc3cccc4c3C(=O)N(C3CCC(=O)NC3=O)C4=O)CC2)CC1 (stereo not shown) [SIAIS262033, (E)-N-(4-((3-chloro-4-fluorophenyl)amino)-7-methoxyquinazolin-6-yl)-4-(4-(4-(7-((2-(2,6-dioxopiperidin-3-yl)-1,3-dioxoisoindolin-4-yl)thio)heptanoyl)piperazin-1-yl)piperidin-1-yl)but-2-enamide]
pIC50 [1, 8]: ~9.00
pIC50 ([4]; WST (CCK8)): 8.42
pIC50 [5]: 9.15

COc1cc2ncnc(Nc3ccc(F)c(Cl)c3)c2cc1NC(=O)/C=C/CN1CCC(NC(=O)CNc2cccc3c2C(=O)N(C2CCC(=O)NC2=O)C3=O)CC1 (stereo not shown) [SIAIS249081, (E)-N-(4-((3-chloro-4-fluorophenyl)amino)-7-methoxyquinazolin-6-yl)-4-(4-(2-((2-(2,6-dioxopiperidin-3-yl)-1,3-dioxoisoindolin-4-yl)amino)acetamido)piperidin-1-yl)but-2-enamide]
pIC50 [1, 8]: 7.92
pIC50 ([4]; WST (CCK8)): 7.49
pIC50 [2, 9]: 6.94

C=CC(=O)Nc1cc(Nc2nccc(-c3cn(C)c4ccccc34)n2)c(OC)cc1N(C)CCN(C)C(=O)CCCCCCCCCSc1cccc2c1CN(C1CCC(=O)NC1=O)C2=O (stereo not shown) [SIAIS337060, N-(2-((2-acrylamido-5-methoxy-4-((4-(1-methyl-1H-indol-3-yl)pyrimidin-2-yl)amino)phenyl)(methyl)amino)ethyl)-10-((2-(2,6-dioxopiperidin-3-yl)-1-oxoisoindolin-4-yl)thio)-N-methyldecanamide]
pIC50 [1, 6]: 6.92
pIC50 [2, 7]: 6.77
